What all share (assay type): functional
Assay [1] has as its system Mycobacterium tuberculosis. Description: Antibacterial activity against isonizaid/rifampicin/streptomycin/ethambutol-resistant Mycobacterium tuberculosis isolate FJ05195 after 18 hrs by agar dilution method. To be noted: isolate FJ05195, 18 h. (In agar dilution the substance is mixed into plates at graded concentrations.)
In assay [2] the test system is Mycobacterium tuberculosis. Briefly: Antibacterial activity against isonizaid/rifampicin/streptomycin/ethambutol-resistant Mycobacterium tuberculosis isolate FJ05436 after 18 hrs by agar dilution method. The settings on record: isolate FJ05436, 18 h.
Assay [3] concerns Mycobacterium tuberculosis. Briefly: Antibacterial activity against isonizaid/rifampicin-resistant Mycobacterium tuberculosis isolate FJ05120 after 18 hrs by agar dilution method. The settings on record: isolate FJ05120, 18 h.

Two compounds from ChEMBL document CHEMBL4130613, “Identification and Proposed Relative and Absolute Configurations of Niphimycins C-E from the Marine-Derived Streptomyces sp. IMB7-145 by Genomic Analysis” (J Nat Prod, 2018) can be followed below.

The term MIC denotes the smallest concentration in the dilution series that meets the test's criterion for growth inhibition. A low value points to greater potency.

Molecules are shown by their SMILES. ≈ marks a conversion by molar mass, not a printed value.

`CNC(=N)NCCC/C=C/CCC[C@H](C)C[C@H](C)[C@H]1OC(=O)[C@H](C)[C@H](O)/C=C/[C@H](C)[C@H](O)C[C@H](O)[C@H](C)[C@@H](O)CC[C@H](C)[C@H](O)C[C@]2(O)O[C@H](C[C@@H](OC(=O)CC(=O)O)C[C@H](O)C[C@@H](O)[C@H](C)[C@H](O)/C=C/C=C/[C@@H]1C)C[C@H](O)[C@H]2O`: the MIC was 4 to 32 µg/mL (≈ 3.5 to 28 µM) in assay [1], 4 to 32 µg/mL (≈ 3.5 to 28 µM) in assay [2] and 4 to 16 µg/mL (≈ 3.5 to 14 µM) in assay [3].

Regarding `CNC(=N)NCCC/C=C/CCC[C@H](C)C[C@H](C)[C@H]1OC(=O)[C@H](C)[C@H](O)/C=C/[C@H](C)[C@H](O)C[C@H](O)[C@H](C)[C@@H](O)CC[C@H](C)[C@H](O)C[C@]2(O)O[C@H](C[C@@H](O)C[C@H](OC(=O)CC(=O)O)C[C@@H](O)[C@H](C)[C@H](O)/C=C/C=C/[C@@H]1C)C[C@H](O)[C@H]2O`, the MIC in assay [1] was 4 to 32 µg/mL (≈ 3.5 to 28 µM); in assay [2] it was 4 to 32 µg/mL (≈ 3.5 to 28 µM); in assay [3], 4 to 16 µg/mL (≈ 3.5 to 14 µM).
